Experimental data from patent publication US9443060B2, “Method and system to provide personalized pharmaceutical compositions and dosages” (Volant Holdings GMBH, priority 2009, dated 2016).
Read-outs that look alike come from different tables or passages of the source.

Columns and labels:
[1] = test system: peripheral glucose uptake (PGU); conditions: cited from earlier work
[2] = test system: peripheral glucose uptake (PGU); assay: Glucose supply and insulin demand model: effect on peripheral glucose uptake; type: in vivo, human
Procedure: (§1) Therapeutic targets of the glucose supply (CE, 1+2; HGU, 3; GNG, 4; IR, 5) and insulin demand (PGU, 6; PIE, 7) model are presented in FIG. 1. To identify quantitative differences between antidiabetic agents on CE, HGU, GNG, IR, PGU, and PIE, multidatabase searches (Cochrane Central Register of Controlled Trials and Cochrane Register of Systematic Reviews, Embase, OVID Healthstar, OVID Journals, and PubMed) were conducted cross-referencing title and keywords for all selected antidiabetic therapies and their respective targets.
(§2) Alpha-glucosidase, biguanide, and thiazolidinedione (TZD) studies with long-term, pre-post design at maximal therapeutic doses were identified to simulate chronic administration. To maintain consistency with cardiovascular trials and accommodate known influences of hyperglycemia and hyperinsulinemia on the respective targets,^13-16 studies including patients with HbA1c in the range of 6-8% and body mass index (BMI)≧30 kg/m^2 were preferentially selected. In the event multiple studies were available to identify the effect of an agent on a therapeutic target, the mean percent change was used. Conversely, if there was evidence that an agent would elicit a response on a given target but no mathematical representation of the difference was provided, conservative estimates consistent with the scale of other agents and the degree of glucose regulation were instituted to best represent the expected effect. Individual agents were then characterized for the 24 h percent change from baseline for CE, HGU, GNG, IR, PGU, and PIE. Carbohydrate exposure was determined as the combined effect of caloric intake and intestinal carbohydrate absorption. Hepatic glucose uptake was defined as the reported value obtained immediately following oral glucose loading. Because GNG is known to be enhanced in the fasting state and persistent throughout the prandial phase,^17,18 effect was determined during the fasting state and considered equivalent throughout the prandial phase. For studies evaluating fasting glucose and insulin concentrations, an index of IR was determined by homeostasis model assessment of insulin resistance (HOM-AIR) using the following formula: Insulin (mU/liter)×Glucose (mmol)/22.5.^19 To account for known differences in secretory and uptake dynamics during the fasting and prandial phases, studies identifying the impact of therapies during the fasting state (or simulated hyperinsulinemic euglycemic clamp) and prandial phase (or oral glucose load insulin clamp) were specifically identified for changes in PGU (glucose infusion rate) and PIE (insulin concentrations) according to Equation (1): […]
(§3) For sulfonylurea and insulin-based therapies, insulin concentration time profiles were obtained and superimposed on the baseline 24 h insulin concentration time profile of T2D patients (FIG. 2) to calculate the increase in PIE (trapezoidal rule).^20 Calculated increases in incremental and cumulative insulin exposure were correlated to known insulin dose-response effects on HGU, GNG, and PGU (FIG. 3),^18,21 according to the equation y=mx+b. Twenty-four-hour increases in HGU, PGU, and PIE and decreases in GNG were compared to baseline values and percent change calculated.
(§4) With alpha-glucosidase, biguanide, TZD, secretagogue, and insulin therapies characterized for their respective impacts on CE, HGU, GNG, IR, PIE, and PGU, identification of their effect on the glucose supply (decrease in CE, increase in HGU, decrease in GNG, decrease in IR) and insulin demand (increase in PIE, increase in PGU) dynamic was assessed according to Equation (2), which provides the SD ratio according to the invention: […]

insulin resistance (IR) [3] = conditions: cited from earlier work
[4] = test system: carbohydrate exposure (CE); assay: Glucose supply and insulin demand model: effect on carbohydrate exposure; type: in vivo, human; design: scale not given here; conditions: Metformin 2000 mg, Glyburide 10 mg, Pioglitazone 45 mg, Insulin Glargine 0.5 U/kg daily; pH encapsulated glucose 3.0 grams/day
Procedure: as §1, §2, §3, §4

[5] = test system: hepatic gluconeogenesis (GNG); assay: Glucose supply and insulin demand model: effect on hepatic gluconeogenesis; type: in vivo, human
Procedure: as §1, §2, §3, §4

[6] = test system: intestinal glucose transfer; conditions: metformin 50 mg/kg, mice; cited from earlier work
[7] = test system: brush border vesicles isolated from rabbit intestine; conditions: 5 mM metformin; cited from earlier work
[8] = test system: hepatic glucose uptake (HGU); assay: Glucose supply and insulin demand model: effect on hepatic glucose uptake; type: in vivo, human
Procedure: as §1, §2, §3, §4

[9] = test system: peripheral insulin exposure (PIE); conditions: cited from earlier work
insulin resistance (IR) [10] = assay: Glucose supply and insulin demand model: effect on insulin resistance; type: in vivo, human
Procedure: as §1, §2, §3, §4

[11] = test system: peripheral insulin exposure (PIE); assay: Glucose supply and insulin demand model: effect on peripheral insulin exposure; type: in vivo, human
Procedure: as §1, §2, §3, §4
Twenty-four-hour steady state insulin concentration time curves were superimposed on the baseline secretion profile of the standard T2D patient.

[12] = test system: intestinal glucose utilization; conditions: cited from earlier work
caloric intake = conditions: Lee and Morley, T2D, cited from earlier work
[13] = test system: hepatic glucose uptake (HGU); conditions: Iozzo; metformin 2000 mg daily, rosiglitazone 8 mg daily; 26 weeks; PET [18F]FDG, insulin clamp; cited from earlier work
[14] = test system: intestinal carbohydrate absorption; conditions: Jackson; metformin, 75 g oral glucose load with labeled glucose, 3 h; cited from earlier work
[15] = Metformin 2000 mg, Glyburide 10 mg, Pioglitazone 45 mg, Insulin Glargine 0.5 U/kg daily, pH encapsulated glucose 3.0 grams/day

In the case of `CN(C)C(=N)N=C(N)N` [Metformin], the “increase in glucose infusion rate” value ([1]; Inzucchi, metformin 2000 mg daily, 12 weeks, euglycemic hyperinsulinemic clamp at 100 mg/dl) is given as 13%, the glucose infusion rate ([1]; Inzucchi, metformin 2000 mg daily, 12 weeks, euglycemic hyperinsulinemic clamp, before 240) is given as 272 mg/m^−2/min^−1 and the “rate of plasma glucose turnover” value ([1]; Stumvoll, metformin, before 2.8±0.2) is given as 2.0±0.2 mg/kg^−1/min^−1. The systemic glucose disposal ([1]; Stumvoll, metformin) was “did not change”, the “glucose rate of disappearance” value ([1]; Tiikkainen, metformin 2000 mg daily, 16 weeks, clamp at 144 mg/dl, before 0.09±0.01, unchanged) was 0.10±0.01 mg/kg^−1/min^−1 and the “Score PGU” value [2, 15] was 0.14. For the same compound, the PGU ([2]; adjustment factor = increase in peripheral glucose uptake at the therapeutic dose of Table 1, T2D) was 0.14, the “reduction of calculated IR” value (insulin resistance (IR) [3]; T2D patients, maximal therapeutic doses of metformin (Iozzo, Stumvoll, Tiikkainen, Sharma)) was 38-44% and the “reduction of calculated IR (HOMA-IR)” value (insulin resistance (IR) [3]; meta-analysis of randomized controlled trials, people at risk for T2D, metformin) was 22.6%. For the same compound, the “Score CE” value [4] was 0.15, the “Score HGI” value [5, 15] was 0.35 and the GNG inhibition ([5]; adjustment factor = decrease in hepatic gluconeogenesis at the therapeutic dose of Table 1, T2D) was 0.35. The “reduction of net glucose transfer in the serosal fluid” value [6] was 12%, the glucose uptake [7] was “nominal decrease in glucose uptake” and the “Score HGU” value [8, 15] was 0.40. The HGU uptake ([8]; adjustment factor = increase in hepatic glucose uptake at the therapeutic dose of Table 1, T2D) was 0.40, the “mean fasting and postprandial plasma insulin concentrations” value ([9]; Inzucchi, metformin 2000 mg daily, 12 weeks) was “slightly, but not significantly reduced” and the FPI ([9]; Iozzo, metformin, before 63±12) was 43.0 ± 5.0 pmol/L. The “reduction of FPI” value ([9]; Iozzo, metformin) was about 30%, the FPI ([9]; Sharma, metformin 2000 mg daily, 16 weeks, before 76.0±54.5) was 69.0 ± 45.0 pmol/L and the “reduction in FPI” value ([9]; Sharma, metformin 2000 mg daily, 16 weeks) was about 10%. For the same compound, the FPI ([9]; Stumvoll, metformin, before 12±5) was 10 μU/ml, the “reduction of FPI” value ([9]; Stumvoll, metformin) was 17% and the FPI ([9]; Tiikkainen, metformin 2000 mg daily, 16 weeks, before 13) was 9 mU/liter. For the same compound, the “reduction in FPI” value ([9]; Tiikkainen, metformin 2000 mg daily, 16 weeks) was about 30%, the “reduction of FPI concentrations (range over studies)” value ([9]; metformin) was 10-30% and the “Score IR” value (insulin resistance (IR) [10]; [15]) was 0.38. For the same compound, the IR reduction (insulin resistance (IR) [10]; adjustment factor = decrease in insulin resistance at the therapeutic dose of Table 1, T2D) was 0.38, the “Score PIE” value [11, 15] was −0.10 and the PIE ([11]; adjustment factor = increase in peripheral insulin exposure at the therapeutic dose of Table 1, T2D) was −0.10. For the same compound, the “increase in glucose utilization in mucosa from different regions of the intestine” value ([12]; Bailey, metformin 250 mg/kg^−1, normal rats, intravenous glucose tolerance test) was 30-60%, the “increase in glucose utilization in the jejunum” value ([12]; Penicaud, metformin 350 mg/kg^−1/day^−1 for 8 days, obese fa/fa rats) was 39% and the “reduction of total caloric intake during the 30 min period” value (caloric intake; metformin 850 mg for 3 days) was 30%. For the same compound, the “reduction of total caloric intake during the 30 min period” value (caloric intake; metformin 1700 mg for 3 days) was 50%, the “increase in HGU, placebo-subtracted value” [13] was “+0.008±0.004 μmol/kg^−1/min^−1” and the absorption of glucose [14] was “slightly delayed, but ultimately unaltered”.
